Measurements reported in EP1433789A1, “Pyrrolopyrazines and their use as selective apoptosis inducers” (Aponetics AG, priority 2002, dated 2004).

How the values were obtained:
HeLa [1] = experiment: Hoechst 33342 nuclear staining (Table 3); assay type: cell-based, human; parameters: key: 0 relating to no activity; 1 relating to weak activity comprising less than 50% of the cells; score 2 relating to strong activity comprising more than 50% of the cells
Experimental: (§1) This assay is performed in 96 well tissue culture plates. Appropriate number of cells (adherent cells: 3 - 5*10^3, suspension cells: 8 - 10*10^3) are being seeded out in 80 µl complete medium. Adherent cells are incubated for 24 h for proper spreading out before addition of test compounds while suspension cells are immediately treated with test compounds after seeding out. The test compounds are added in 20 µl complete medium containing max 5% DMSO. The final compound concentrations in the assays are 10 µM, 3 µM,1 µM and 0.3 µM, respectively. After 24 h or 48 h incubation at culture conditions, 10 µl medium containing Hoechst 33342 dye (Sigma B-2261) at 2-5 µg/ml are added to each well. The assay plates are then further incubated for 30 minutes and subsequently analyzed with a standard inverted fluorescence microscope. The readout allows the determination of the fraction of apoptotic nuclei as well as other morphological criteria specific for apoptosis as a function of the treatment. The following scores are used: 0 relating to no activity, 1 relating to weak activity comprising less than 50% of the cells and score 2 relating to strong activity comprising more than 50% of the cells.

Jurkat [2] = experiment: Hoechst 33342 nuclear staining (Table 3); assay type: cell-based, human; parameters: key: 0 relating to no activity; 1 relating to weak activity comprising less than 50% of the cells; score 2 relating to strong activity comprising more than 50% of the cells
Experimental: as §1

K562 = experiment: Hoechst 33342 nuclear staining (Table 3); assay type: cell-based, human; parameters: key: 0 relating to no activity; 1 relating to weak activity comprising less than 50% of the cells; score 2 relating to strong activity comprising more than 50% of the cells
Experimental: as §1

KB = experiment: Hoechst 33342 nuclear staining (Table 3); assay type: cell-based, human; parameters: key: 0 relating to no activity; 1 relating to weak activity comprising less than 50% of the cells; score 2 relating to strong activity comprising more than 50% of the cells
Experimental: as §1

HeLa [3] = experiment: AnnexinV/7-AAD staining; assay type: cell-based, human; details: 10 µM, 24 h treatment
Experimental: (§2) Adherent cells (1 - 2*10^5) are 24 h prior to compound treatment seeded into 24 well tissue culture plates. Suspension cells are pipetted into P-tubes immediately before treatment. Test compounds are added leading to a final concentrations of 10 µM. After 24 h treatment cells are harvested (in case of adherent cells by trypsinization) and transferred to FACS tubes (BD Biosciences). After centrifugation and removal of the supernatant, 100 µl complete medium containing AnnexinV-GST (10 µg) is added, mixed and incubated at 4°C for 30 minutes. Subsequently, the cells are washed once with medium and incubated with 100 µl anti-GST Alexa 488 (Molecular Probes A-11131) in medium diluted 1:500 for 30 minutes at 4°C. Then, cells are washed once and stained with 1 µg/ml 7-aminoactinomycin D (7-AAD) (Molecular Probes A-1310) in 250 µl medium and analyzed on the FACSCalibur™. AnnexinV is measured in FL1 whereas 7-AAD is measured in FL3. In Table 5 the percentage of positively stained cells after treatment with the respective compounds are indicated. The following scores are used: Score 0 relates to less than 10%, score 1 relates to more than 10% but less than 50% and score 2 relates to more than 50% positivity.

Jurkat [4] = experiment: AnnexinV/7-AAD staining; assay type: cell-based, human; details: 10 µM, 24 h treatment
Experimental: as §2

Ramos [5] = experiment: AnnexinV/7-AAD staining; assay type: cell-based, human; details: 10 µM, 24 h treatment
Experimental: as §2

A20 [6] = experiment: AnnexinV/7-AAD staining; assay type: cell-based, mouse; details: A20, 10 µM, 24 h treatment
Experimental: as §2

A20 [7] = experiment: Hoechst 33342 nuclear staining (Table 3); assay type: cell-based, mouse; parameters: key: 0 relating to no activity; 1 relating to weak activity comprising less than 50% of the cells; score 2 relating to strong activity comprising more than 50% of the cells
Experimental: as §1

Ramos [8] = experiment: Hoechst 33342 nuclear staining (Table 3); assay type: cell-based, human; parameters: key: 0 relating to no activity; 1 relating to weak activity comprising less than 50% of the cells; score 2 relating to strong activity comprising more than 50% of the cells; details: 24h
Experimental: as §1

Compound	Hoechst 33342 nuclear staining (HeLa [1]; 24h, conc 0.3 (µM))	Hoechst 33342 nuclear staining (HeLa [1]; 24h, conc 1 (µM))	Hoechst 33342 nuclear staining (HeLa [1]; 24h, conc 3 (µM))	Hoechst 33342 nuclear staining (HeLa [1]; 24h, conc 10 (µM))	Hoechst 33342 nuclear staining (HeLa [1]; 48h, conc 0.3 (µM))	Hoechst 33342 nuclear staining (HeLa [1]; 48h, conc 1 (µM))	Hoechst 33342 nuclear staining (HeLa [1]; 48h, conc 3 (µM))	Hoechst 33342 nuclear staining (HeLa [1]; 48h, conc 10 (µM))	Hoechst 33342 nuclear staining (Jurkat [2]; 24h, conc 0.3 (µM))	Hoechst 33342 nuclear staining (Jurkat [2]; 24h, conc 1 (µM))	Hoechst 33342 nuclear staining (Jurkat [2]; 24h, conc 3 (µM))	Hoechst 33342 nuclear staining (Jurkat [2]; 24h, conc 10 (µM))	Hoechst 33342 nuclear staining (Jurkat [2]; 48h, conc 0.3 (µM))	Hoechst 33342 nuclear staining (Jurkat [2]; 48h, conc 1 (µM))	Hoechst 33342 nuclear staining (Jurkat [2]; 48h, conc 3 (µM))	Hoechst 33342 nuclear staining (Jurkat [2]; 48h, conc 10 (µM))	Hoechst 33342 nuclear staining (K562; K562, 24h, conc 0.3 (µM))	Hoechst 33342 nuclear staining (K562; K562, 24h, conc 1 (µM))	Hoechst 33342 nuclear staining (K562; K562, 24h, conc 3 (µM))	Hoechst 33342 nuclear staining (K562; K562, 48h, conc 0.3 (µM))	also measured
CC1(C)Cc2ccccc2-c2cc3nc4ccccc4nc3n21 [No. 1, 6,6-Dimethyl-5,6-dihydro-6a,7,12-triaza-dibenzo[a,h]fluorene]	0	0	0	0	0	2 (score 2 relating to strong activity comprising more than 50% of the cells)	2 (score 2 relating to strong activity comprising more than 50% of the cells)	2 (score 2 relating to strong activity comprising more than 50% of the cells)	1 (1 relating to weak activity comprising less than 50% of the cells)	1 (1 relating to weak activity comprising less than 50% of the cells)	2 (score 2 relating to strong activity comprising more than 50% of the cells)	2 (score 2 relating to strong activity comprising more than 50% of the cells)	2 (score 2 relating to strong activity comprising more than 50% of the cells)	2 (score 2 relating to strong activity comprising more than 50% of the cells)	2 (score 2 relating to strong activity comprising more than 50% of the cells)	2 (score 2 relating to strong activity comprising more than 50% of the cells)	0	0	0	0	Hoechst 33342 nuclear staining (K562; K562, 48h, conc 1 (µM)): 1 (1 relating to weak activity comprising less than 50% of the cells); Hoechst 33342 nuclear staining (K562; K562, 48h, conc 3 (µM)): 2 (score 2 relating to strong activity comprising more than 50% of the cells); Hoechst 33342 nuclear staining (K562; K562, 48h, conc 10 (µM)): 2 (score 2 relating to strong activity comprising more than 50% of the cells); Hoechst 33342 nuclear staining (KB; 24h, conc 0.3 (µM)): 0; Hoechst 33342 nuclear staining (KB; 24h, conc 1 (µM)): 0; Hoechst 33342 nuclear staining (KB; 24h, conc 3 (µM)): 0; Hoechst 33342 nuclear staining (KB; 24h, conc 10 (µM)): 0; Hoechst 33342 nuclear staining (KB; 48h, conc 0.3 (µM)): 0; Hoechst 33342 nuclear staining (KB; 48h, conc 1 (µM)): 0; Hoechst 33342 nuclear staining (KB; 48h, conc 3 (µM)): 0; Hoechst 33342 nuclear staining (KB; 48h, conc 10 (µM)): 0; percentage of positively stained cells (AnnexinV/7-AAD staining) (HeLa [3]): 1 (score 1 relates to more than 10% but less than 50%); percentage of positively stained cells (AnnexinV/7-AAD staining) (Jurkat [4]): 0 (Score 0 relates to less than 10%); percentage of positively stained cells (AnnexinV/7-AAD staining) (Ramos [5]): 1 (score 1 relates to more than 10% but less than 50%); percentage of positively stained cells (AnnexinV/7-AAD staining) (A20 [6]): 0 (Score 0 relates to less than 10%)
CC1(C)Cc2ccccc2-c2c(C=O)c3nc4ccccc4nc3n21 [No. 3, 6,6-Dimethyl-5,6-dihydro-6a,7,12-triaza-dibenzo[a,h]fluorene-13-carbaldehyde]	0	0	0	0	0	0	0	1 (1 relating to weak activity comprising less than 50% of the cells)	0	0	0	0	0	0	0	2 (score 2 relating to strong activity comprising more than 50% of the cells)	0	0	0	0	Hoechst 33342 nuclear staining (A20 [7]; A20, 24h, conc 0.3 (µM)): 0; Hoechst 33342 nuclear staining (A20 [7]; A20, 24h, conc 1 (µM)): 0; Hoechst 33342 nuclear staining (A20 [7]; A20, 24h, conc 3 (µM)): 0; Hoechst 33342 nuclear staining (A20 [7]; A20, 24h, conc 10 (µM)): 0; Hoechst 33342 nuclear staining (A20 [7]; A20, 48h, conc 0.3 (µM)): 0; Hoechst 33342 nuclear staining (A20 [7]; A20, 48h, conc 1 (µM)): 0; Hoechst 33342 nuclear staining (A20 [7]; A20, 48h, conc 3 (µM)): 0; Hoechst 33342 nuclear staining (A20 [7]; A20, 48h, conc 10 (µM)): 0; Hoechst 33342 nuclear staining (K562; K562, 24h, conc 10 (µM)): 0; Hoechst 33342 nuclear staining (K562; K562, 48h, conc 1 (µM)): 0; Hoechst 33342 nuclear staining (K562; K562, 48h, conc 3 (µM)): 1 (1 relating to weak activity comprising less than 50% of the cells); Hoechst 33342 nuclear staining (K562; K562, 48h, conc 10 (µM)): 1 (1 relating to weak activity comprising less than 50% of the cells); Hoechst 33342 nuclear staining (Ramos [8]; conc 0.3 (µM)): 0; Hoechst 33342 nuclear staining (Ramos [8]; conc 1 (µM)): 0; Hoechst 33342 nuclear staining (Ramos [8]; conc 3 (µM)): 0; Hoechst 33342 nuclear staining (Ramos [8]; conc 10 (µM)): 0; percentage of positively stained cells (AnnexinV/7-AAD staining) (HeLa [3]): 1 (score 1 relates to more than 10% but less than 50%); percentage of positively stained cells (AnnexinV/7-AAD staining) (Jurkat [4]): 2 (score 2 relates to more than 50% positivity); percentage of positively stained cells (AnnexinV/7-AAD staining) (Ramos [5]): 2 (score 2 relates to more than 50% positivity); percentage of positively stained cells (AnnexinV/7-AAD staining) (A20 [6]): 1 (score 1 relates to more than 10% but less than 50%)
